Measurements from US12036212B2, “Enhancement of tumor response to chemotherapy by activation of the asmase/ceramide pathway through timed administration of a short-acting anti-angiogenic agent” (Memorial Sloan-Kettering Cancer Center, priority 2014, dated 2024).

Test system: ASMase
Assay: ASMase activation in HCAEC
Assay type: cell-based, human
Conditions: cisplatin 0.1-50 μM
Protocol: HCAEC were obtained from Clonetics™ Coronary Artery Endothelial Cell Systems (Cambrex Bio Science Inc.). For HCAEC culturing and sub-culturing Clonetics cell system components were used: EBM®-2, Endothelial Cell Basal Medium-2 with addition of Clonetics EGM-2-MV SingleQuots containing growth supplements (Cambrex) (Biomedical Technologies, Inc.). For sub-culturing, monolayers were dissociated with Clonetics® Trypsin/EDTA solution for 2-3 min at 22° C. at a split ratio of 1:4 to expand the cell population for experiments. HCAEC cultures were maintained at 37° C. in 5% CO2 humidified incubators.
ASMase activity was quantified by radioenzymatic assay using [^14C-methylcholine]sphingomyelin (Amersham) as substrate as described (Schissel et al. J Biol Chem, 271, 18431-18436, 1996). Cell lysates were incubated with [^14C-methylcholine]-sphingomyelin substrate (0.026 mCi/9.5 nmol) in 250 mM sodium acetate, pH 5.0 supplemented with 0.1% Triton X-100 and 1 mM EDTA or 0.1 mM ZnCl. Reactions were terminated after 1 h with CHCl3:MeOH:1N HCl (100:100:1, v/v/v), and [^14C-methylcholine]phosphocholine product in the aqueous layer of the Folch extract was quantified using a Beckman Packard 2200 CA Tricarb scintillation counter. For detection of ASMase activity in patients, 10 μl of serum was used. […]

N.N.[Cl][Pt][Cl] [cisplatin]
ASMase activation: failed to activate ASMase
